Experimental data from US10258556B2, “Anti-aging peptide, its composition and method of using the same” (priority 2017, dated 2019).
Residues, ends and D or L forms follow the SMILES beside them.

System: CCD-966SK fibroblast cells
Assay: MTT assay (cell viability)
Assay type: cell-based, human
Conditions: peptide at different concentrations, 24, 48 and 72 hours, FIG. 3
Protocol: CCD-966SK was skin fibroblast cells isolated from human breast and was purchased from BCRC (Bioresource Collection and Research Center, Hsinchu, Taiwan). It was cultured in Dulbecco's Modified Eagle Medium (DMEM) containing 10% (v/v) FBS and penicillin/streptomycin (100 IU/[…]) in 5% CO2 at 37° C.
The cells (3×10^3) in 100 μl complete DMEM were seeded in 96-well plates with or without MUC20 peptide NO.10. Ten microliters of 5 mg/ml 3-(4,5-dimethyl-2-thiazolyl)-2,5-diphenyl-2H-tetrazolium bromide solution (MTT; Sigma) was added to each well and incubated at 37° C. for 3 hours. After that, 100 μl 10% SDS in 0.01N HCl was added to dissolve the MTT formazan crystals. The resultant optical density was measured by spectrophotometry at dual wavelengths, 550 and 630 nm.
The cell viability of the CCD-966SK fibroblast cells was analyzed by MTT assays. The results were obtained from three independent experiments. The results of the cells treated with the peptide of SEQ ID NO: 1 for 24 hours (upper panel), 48 hours (middle panel), and 72 hours (lower panel) were shown in FIG. 3.

## C[C@H](NC(=O)[C@H](CCC(=O)O)NC(=O)[C@@H](NC(=O)[C@H](CO)NC(=O)[C@H](CC(=O)O)NC(=O)[C@@H]1CCCN1)[C@@H](C)O)C(=O)N[C@@H](CCCCN)C(=O)O [peptide of SEQ ID NO: 1, ProAspSerThrGluAlaLys] (H-PDSTEAK-OH)
  viability of the CCD-966SK fibroblast cells: did not significantly affect viability
